The supplement of paper PMC7801607

These molecules were tested on Plasmodium falciparum Dd2 asexual blood stage.

SMILES	IC50 [µM]
Cc1nc(N(C)C(=O)Cc2ccc(-c3ccccn3)cc2)sc1S(N)(=O)=O	> 5
COc1cc(NC(=O)CN2C(=O)NC(c3ccccc3)(c3ccccc3)C2=O)cc(OC)c1	> 5
CCCCCOc1ccc(/C=C2\Oc3c(ccc(O)c3O)C2=O)c(O)c1	> 5
C=CCc1cc(Cc2cnc(N)nc2N)cc(OC)c1O	> 5
OB1OCc2cc(Cl)ccc21	> 5
O=C(N[C@H](Cc1cccc2ccccc12)C(=O)NCCc1c[nH]cn1)C1Cc2ccccc2C1	> 5
Cc1onc(-c2ccccc2)c1-c1ccc(S(N)(=O)=O)cc1	> 5
CC(=O)Nc1cc(NS(=O)(=O)c2ccc(Cl)cc2)cc2c(Cl)n[nH]c12	> 5
CC#C[C@]1(O)CC[C@H]2[C@@H]3CCC4=CC(=O)CCC4=C3[C@@H](c3ccc(N(C)C)cc3)C[C@@]21C	> 5
O=C(O)CCNC(=O)c1ccccc1	> 5
COc1ccc(NS(=O)(=O)c2ccc(Cl)s2)cn1	> 5
Cc1c(F)cccc1NC(=O)Nc1ccc(Cl)c(S(=O)(=O)[C@H]2CCCNC2)c1O	> 5
O=S(=O)(Nc1ccc(-n2cccc2)cc1)c1ccc(Cl)c(Cl)c1	> 5
COC(=O)Nc1nc2cc(S(=O)c3ccccc3)ccc2[nH]1 (configuration not stated)	> 5
CN(C)CC(=O)Nc1ccc2[nH]c(=O)c3ccccc3c2c1	> 5
C=C(C)[C@@H]1CC[C@]2(C(=O)O)CC[C@]3(C)[C@H](CC[C@@H]4[C@@]5(C)CC[C@H](O)C(C)(C)[C@@H]5CC[C@]43C)[C@@H]12	> 5
Nc1nc(O)c(Br)c(-c2ccccc2)n1	> 5
O=C1c2cccc3cccc(c23)C(=O)N1CC1CO1 (configuration not stated)	4.29
CC[C@H](CO)Nc1nc(NCc2ccccc2)c2ncn(C(C)C)c2n1	> 5
CN(C(=O)C1(c2ccc(Cl)cc2)CCC1)c1ccccc1	> 5
CCOC(=O)N[C@@H]1CC[C@@H]2[C@@H](C1)C[C@H]1C(=O)O[C@H](C)[C@H]1[C@H]2/C=C/c1ccc(-c2cccc(F)c2)cn1	> 5
O=S(=O)(Nc1cccc2cccnc12)c1ccccc1	> 5
COc1cc(Cc2cnc(N)nc2N)cc(OC)c1OC	> 5
O=C(NC(=O)N1CCCc2ccccc21)c1ccc(Cl)cc1Cl	> 5
O=C(NCc1cccc2ccccc12)c1cccs1	> 5
O=C(O)c1sccc1S(=O)(=O)n1ccc2cc(Br)ccc21	> 5

SMILES	IC50 [µM]
CC(=O)N[C@H](C)C(=O)N[C@H](Cc1ccccc1)C(=O)O	> 5
Clc1cc2nc(C3CCNCC3)n(Cc3ccc(CNCCc4cnc[nH]4)cc3)c2cc1Cl	2.41
NCc1ccc(S(N)(=O)=O)cc1	> 5
O[C@@](Cn1cnnn1)(c1ccc(F)cc1F)C(F)(F)c1ccc(-c2ccc(OCC(F)(F)F)cc2)cn1	> 5
COc1ccc(SCC(=O)N2c3ccccc3Sc3ccccc32)cc1	> 5
O=c1oc2ccc(Br)cc2cc1CSc1ncc[nH]1	> 5
O=C(NC12CC3CC(CC(C3)C1)C2)c1cc2ccccc2[nH]1	> 5
O=C(Nc1ccccc1C(=O)O)c1cccc(Oc2ccccc2)c1	> 5
C[C@H]1COc2c(N3CCN(C)CC3)c(F)cc3c(=O)c(C(=O)O)cn1c23	> 5
O=S(=O)(NCB(O)O)c1ccc(-c2nnn[nH]2)cc1C(F)(F)F	> 5
O=C1CCC(N2C(=O)c3ccccc3C2=O)C(=O)N1 (configuration not stated)	> 5
COc1ccc(C2CNC(=O)C2)cc1OC1CCCC1 (configuration not stated)	> 5
C[C@H](NC(=O)C(=O)Nc1ccccc1C(C)(C)C)C(=O)N[C@@H](CC(=O)O)C(=O)COc1c(F)c(F)cc(F)c1F	> 5
O=C(/C=C\n1cnc(-c2cc(C(F)(F)F)cc(C(F)(F)F)c2)n1)NNc1ccccn1	> 5
FC(F)(F)Oc1ccc(Nc2ccc3cccc(Cl)c3n2)cc1	> 5
CN(O)C(=O)c1cc2c(CN3CCC[C@H]3C(N)=O)cn(Cc3ccc(F)cc3)c2cn1	> 5
NC(=O)c1cnc2ccc(S(=O)(=O)c3ccccc3)cc2c1Nc1ccc(O)cc1	> 5
O=c1ccc2ncc(=O)n3c2n1CC3CN1CCC(NCc2cc3c(cn2)OCCC3)CC1 (configuration not stated)	> 5
NC(=O)c1ccc(I)c([N+](=O)[O-])c1	> 5
CCc1c(OCC2CCC2)c2cc(F)ccc2[nH]c1=O	> 5
COC(=O)Nc1nc2c(C)cccc2[nH]1	> 5
OCCCCn1cnc2c(O)nc(NCc3ccc(Cl)c(Cl)c3)nc21	> 5
Cc1ccc(N2CCC(CCOc3ccc(S(C)(=O)=O)cc3)CC2)nn1	> 5
O=C(N[C@H](CCS)C(=O)N[C@H](Cc1ccccc1)C(=O)O)c1cc2ccccc2[nH]1	> 5
CC(C)CCN1C(=O)C(C2=NS(=O)(=O)c3cc(NS(C)(=O)=O)ccc3N2)=C(O)[C@@H]2[C@H]3CC[C@H](C3)[C@@H]21	> 5
CC(=N)N1CC[C@H](SC2=C(C(=O)O)N3C(=O)[C@@H]([C@@H](C)O)[C@H]3C2)C1	> 5

SMILES	IC50 [µM]
N[C@H](CCC(=O)N[C@@H](Cc1c[nH]c2ccccc12)C(=O)O)C(=O)O	> 5
CN(C/C=C/C#CC(C)(C)C)Cc1cccc2ccccc12	> 5
CC(=O)NC[C@H]1CN(c2ccc(N3CCSCC3)c(F)c2)C(=O)O1	> 5
CCCCCCCc1[nH]c2ccccc2c(=O)c1O	4.88
C[N+]1(C)CCCC(OC(=O)C(O)(c2ccccc2)c2ccccc2)C1 (configuration not stated)	> 5
CC(=O)N1CCN(c2ccc(OCC3COC(Cn4ccnc4)(c4ccc(Cl)cc4Cl)O3)cc2)CC1 (configuration not stated)	> 5
CCOC(=O)/C=C/[C@H](C[C@@H]1CCNC1=O)NC(=O)[C@@H](CC(=O)[C@@H](NC(=O)c1cc(C)on1)C(C)C)Cc1ccc(F)cc1	> 5
O=C(Nc1ncc(Cc2cccc3ccccc23)s1)C1CCCCC1	> 5
CC(N)C12CC3CC(CC(C3)C1)C2 (configuration not stated)	> 5
NC1(C(=O)O)CCP(=O)(O)CC1 (configuration not stated)	> 5
O=C(CCc1ccc2c(c1)OCO2)NCc1ccc(-c2ccccc2F)cc1	> 5
O=C(CC1Sc2ncnn2C1=O)Nc1ccc(Br)cc1 (configuration not stated)	> 5
O=C(O)c1cc(-c2ccc(Br)cc2)nc2ccc(Cl)cc12	> 5
CC(C)c1cc2c(cc1S(=O)(=O)O)[C@@]1(C)CCC[C@@](C)(C(=O)O)[C@@H]1CC2	> 5
O=C(O)c1ccc(-n2nc(-c3ccccc3O)nc2-c2ccccc2O)cc1	> 5
Oc1cc(-c2cccc3ccccc23)[nH]n1	> 5
C[C@H]1[C@@H](c2cccc(C(F)(F)F)c2)OC(=O)N1C(=O)NCc1cncc2ccccc12	> 5
CCCCCCCCCN1C[C@@H](O)[C@H](O)[C@@H](O)[C@@H]1CO	> 5
O=C(c1nc2c(C(F)(F)F)cc(C3CC3)cn2c1Cl)N1CCN([C@H]2CC[C@H](O)CC2)C(=O)C1	> 5
COc1cc(C(C)(C)CCCC(C)C)cc(OC)c1OC	> 5
Fc1ccc(-n2cc(Cn3c(-c4cccc(F)c4)nc4ccccc43)nn2)cc1	> 5
Nc1nnc(-c2ccc(Cl)cc2)s1	> 5
CC(Oc1ccc(Cl)cc1Cl)C(=O)NCc1ccc2c(c1)OCO2 (configuration not stated)	> 5
Cc1cc(CCCOc2c(C)cc(-c3noc(C(F)(F)F)n3)cc2C)on1	> 5
CCNC(=O)Nc1cc(-c2ccccc2)c(-c2cncc(C(=O)O)c2)cn1	> 5
CC[C@H]1OC(=O)[C@H](C)[C@@H](O[C@H]2C[C@@](C)(OC)[C@@H](O)[C@H](C)O2)[C@H](C)[C@@H](O[C@@H]2O[C@H](C)C[C@H](N(C)C)[C@H]2O)[C@](C)(O)C[C@@H](C)C(=O)[C@H](C)[C@@H](O)[C@]1(C)O	> 5

SMILES	IC50 [µM]
CN1c2ccc(Cl)cc2N(c2ccccc2)C(=O)c2cn(Cc3ccc(CN4CCOCC4)cc3)nc21	> 5
O=C(c1cc(O)nc2ccccc12)N1CCN(c2ccccc2)CC1	> 5
c1ccc(Cn2c(-c3ccccn3)nc3ccccc32)cc1	> 5
COc1ccccc1CN[C@H]1C2CCN(CC2)[C@H]1C(c1ccccc1)c1ccccc1	2.23
O=C(O)C(Cc1c[nH]c2ccccc12)N1C(=O)c2ccccc2C1=O (configuration not stated)	> 5
CCc1oc2ccccc2c1C(=O)c1ccc(O)cc1	> 5
CC(C)(C)NC(=O)[C@@H]1C[C@@H]2CCCC[C@@H]2CN1C[C@@H](O)[C@H](Cc1ccccc1)NC(=O)[C@H](CC(N)=O)NC(=O)c1ccc2ccccc2n1	> 5
Cc1c(CN(C)C(=O)/C=C/c2cnc3c(c2)C(C)(C)C(=O)N3)oc2ccccc12	> 5
CCC[C@H](NC(=O)[C@@H]1[C@H]2CCC[C@H]2CN1C(=O)[C@@H](NC(=O)[C@@H](NC(=O)c1cnccn1)C1CCCCC1)C(C)(C)C)C(=O)C(=O)NC1CC1	> 5
O=C1NC(=S)N/C1=C\c1cc(Br)cc(Br)c1O	> 5
Nc1nc(C(F)(F)F)cc2c1[nH]c(=O)n2Cc1ccccc1	> 5
Nc1nc(-c2ccccc2)nc2c1ncn2[C@@H]1O[C@H](COS(=O)(=O)NC(=O)c2ccccc2O)[C@@H](O)[C@H]1O	> 5
Cc1cc(C2CCCCC2)n(O)c(=O)c1	4.8
NC(=O)c1[nH]c2ccc(S(N)(=O)=O)cc2c1-c1ccccc1	> 5
Cc1nc2ccc(Cl)cc2c(-c2ccccc2)c1CC(=O)O	> 5
NC(=O)[C@@H]1CC[C@@H]2CN1C(=O)N2OS(=O)(=O)O	> 5
CC(=O)Oc1ccccc1C(=O)Nc1ncc([N+](=O)[O-])s1	> 5
CONC(=N)c1ccc(-c2ccc(-c3ccc(C(=N)NOC)cc3)o2)cc1	> 5
COCCn1cnc2c(=O)[nH]c(Nc3ccccc3)nc21	> 5
CN(C)c1[nH]c(=O)ncc1F	> 5
O=c1cc(Nc2ccc3ccccc3c2)[nH]c(=O)[nH]1	> 5
NC[C@H]1OB(O)c2c(OCCCO)cccc21	> 5
CCN1CCN(Cc2nc3ccc([N+](=O)[O-])cc3c(=O)n2-c2ccccc2F)CC1	> 5
COc1c(F)c(F)cc2c(=O)c(C(=O)O)cn(C3CC3)c12	> 5
